The test system of series [1] is bicistronic HCV replicon (replicon RNA, GenBank Accession No. AJ242654). The experiment in a line: HCV Replicon Assay. In kind it is cell-based. Particulars: Hepatitis C virus, 72 h, read-out: Replicon IC50.

For `CC(C)(C)NS(=O)(=O)c1ccc(-c2c(C(N)=O)c3cc(F)c(OC(F)F)cc3n2C2CCC2)nc1` [compound 723, 2-[5-(tert-butylsulfamoyl)pyridin-2-yl]-1-cyclobutyl-6-(difluoromethoxy)-5-fluoro-1H-indole-3-carboxamide], the melting point lay within 158 to 160 °C. Further, the IC50 in series [1] was less than 500 nM.
For the compound `C[C@H](NS(=O)(=O)c1ccc(-c2c(C#N)c3cc(F)ccc3n2-c2ccc(C(F)(F)F)cn2)nc1)C(F)(F)F` [compound 724, 6-{3-cyano-5-fluoro-1-[5-(trifluoromethyl)pyridin-2-yl]-1H-indol-2-yl}-N-[(2S)-1,1,1-trifluoropropan-2-yl]pyridine-3-sulfonamide], the melting point lay within 216 to 218 °C. For the same compound, in series [1], the half-maximal inhibitory concentration (IC50) was 500 to 2000 nM.
As for `CCOc1cc2c(cc1F)c(C#N)c(-c1ccc(S(=O)(=O)N[C@@H](C)C(F)(F)F)cn1)n2C1CCC1` [compound 726, 6-(3-cyano-1-cyclobutyl-6-ethoxy-5-fluoro-1H-indol-2-yl)-N-[(2S)-1,1,1-trifluoropropan-2-yl]pyridine-3-sulfonamide], the melting point lay in the range of 193 to 196 °C. The concentration for half-maximal inhibition (IC50) in series [1] is less than 500 nM.
`C[C@H](NS(=O)(=O)c1ccc(-c2cc3cc(F)c(O)cc3n2C2CCC2)nc1)C(F)(F)F` [compound 728, 6-(1-cyclobutyl-5-fluoro-6-hydroxy-1H-indol-2-yl)-N-[(2S)-1,1,1-trifluoropropan-2-yl]pyridine-3-sulfonamide] showed a melting point of 193 to 195 °C. Besides, in series [1], the IC50 lay within 2000 to 5000 nM.
On the same counts, the results for `CC(C)(NS(=O)(=O)c1ccc(-c2c(C(N)=O)c3cc(F)c(OC(F)F)cc3n2C2CCC2)nc1)C(F)(F)F` [compound 729, 1-cyclobutyl-6-(difluoromethoxy)-5-fluoro-2-{5-[(1,1,1-trifluoro-2-methylpropan-2-yl)sulfamoyl]pyridin-2-yl}-1H-indole-3-carboxamide] are 207 to 209 °C and less than 500 nM.
Turning to `Cc1cc2c(cc1F)c(C(N)=O)c(-c1ccc(S(=O)(=O)NC3(C(F)(F)F)CC3)cn1)n2C1CCCC1` [compound 730, 1-cyclopentyl-5-fluoro-6-methyl-2-(5-{[1-(trifluoromethyl)cyclopropyl]sulfamoyl}pyridin-2-yl)-1H-indole-3-carboxamide], the melting point is 220 to 221 °C. In series [1], the IC50 is less than 500 nM.
Consider `C[C@H](NS(=O)(=O)c1ccc(-c2c(C(N)=O)c3cc(F)c(C4CC4)cc3n2C2CCC2)nc1)C(F)(F)F` [compound 731, 1-cyclobutyl-6-cyclopropyl-5-fluoro-2-(5-{[(2S)-1,1,1-trifluoropropan-2-yl]sulfamoyl}pyridin-2-yl)-1H-indole-3-carboxamide], for which the melting point lay in the range of 225 to 227 °C. Further, in series [1], the concentration for half-maximal inhibition (IC50) is less than 500 nM.
With `Cc1cc2c(cc1F)c(C(N)=O)c(-c1ccc(S(=O)(=O)N[C@H](C)C(F)(F)F)cn1)n2C1CCC1` [compound 732, 1-cyclobutyl-5-fluoro-6-methyl-2-(5-{[(2R)-1,1,1-trifluoropropan-2-yl]sulfamoyl}pyridin-2-yl)-1H-indole-3-carboxamide], the melting point lay in the range of 195 to 197 °C. Further, the half-inhibitory concentration (IC50) in series [1] was less than 500 nM.
For `Cc1cc2c(cc1Cl)c(C(N)=O)c(-c1ncc(S(=O)(=O)N[C@@H](C)C(F)(F)F)cn1)n2C1CCC1` [compound 733, 5-chloro-1-cyclobutyl-6-methyl-2-(5-{[(2S)-1,1,1-trifluoropropan-2-yl]sulfamoyl}pyrimidin-2-yl)-1H-indole-3-carboxamide], the melting point lay in the range of 171 to 173 °C. In series [1], the IC50 is less than 500 nM.
On the same counts, the results for `Cc1cc2c(cc1Cl)c(C(N)=O)c(-c1ccc(S(=O)(=O)N[C@@H](C)C(F)(F)F)cn1)n2C1CCC1` [compound 734, 5-chloro-1-cyclobutyl-6-methyl-2-(5-{[(2S)-1,1,1-trifluoropropan-2-yl]sulfamoyl}pyridin-2-yl)-1H-indole-3-carboxamide] are 207 to 209 °C and less than 500 nM.

These data come from patent US8735414B2 (priority 2009, dated 2014).
